In patent publication US4530907A, “Perfusion-cultivation of animal cells and equipment therefor” (priority 1981, dated 1985):

What follows are molecules tested on neuroblastoma cells. Conditions: not given.
Source text: The test system in question is based on cultivation of neuroblastoma cells C1300, 41A3 and the effect on these cells measured as general biological cell changes or biochemical changes, as a function of the content of toxic substances in the substrate. The cell line used is suitable for such measurements since its biology and biochemistry is well documented.
Examples of other parameters which can be used are ATP (adenosine triphosphate) content and LDH (lactate dehydrogenase) activity in the perfusion liquid. These function as indicators of membrane leakage and their concentration can be expected to increase after exposure. Another way of measuring membrane leakage is to study the outflow of an isotope-marked marker (see Example 5). It is also possible to measure the absorption of trypan blue in dead cells with the help of light absorption (see Example 4 and FIG. 4).
Determining LD50 values by means of cell death, measured as absorption of trypan blue
The accumulation of trypan blue (a stain which is taken up in dead cells) can be calculated with the help of light-absorption measurements.
In the case of `c1ccccc1` [benzene], the “cell death in neuroblastoma cells, correlation with the LD50 values obtained from animal experiments” value (“cell death in neuroblastoma cells” for short) is reported as “correlates well”.

Same assay, conditions: trypan blue absorption by light absorption; statement for all listed substances together
With `[K+].[K+].[O]=[Cr](=[O])([O-])[O][Cr](=[O])(=[O])[O-]` [K2 Cr2 O7] the “cell death in neuroblastoma cells” value was “correlates well”.
`C1COCCO1` [dioxane] was tested, and the “cell death in neuroblastoma cells” value was “correlates well”.
In the case of `[CH3][Hg][Cl]` [CH3 HgCl], the “cell death in neuroblastoma cells” value is reported as “correlates well”.
With `[Cl][Hg][Cl]` [HgCl2] the “cell death in neuroblastoma cells” value was “correlates well”.
With `[Cl][Cd][Cl]` [CdCl2] the “cell death in neuroblastoma cells” value was “correlates well”.
With `CCCO` [n-propanol] the “cell death in neuroblastoma cells” value was “correlates well”.
`Clc1ccc(C(c2ccc(Cl)cc2)C(Cl)(Cl)Cl)cc1` [pp-DDT] was tested, and the “cell death in neuroblastoma cells” value was “correlates well”.
In the case of `CCCCO` [n-butanol], the “cell death in neuroblastoma cells” value is reported as “correlates well”.
For `CC(C)=O` [acetone], the “cell death in neuroblastoma cells” value was “correlates well”.
